Measurements: patent publication US20200283482A1, “BICYCLIC PEPTIDE LIGAND PRR-A CONJUGATES AND USES THEREOF” (BicycleRD Limited, priority 2017, published 2020)
Starred links: 1 amine or outer side, 2 acyl side, 3 side chain; linkers in the order of their positions; H or OH if unused. Positions of bridges follow the written chain, without caps; N, C: chain ends. Non-standard residues stand in square brackets, D forms with d. Residues, ends and D or L forms follow the SMILES beside them. *: point of attachment. X1 = CCOCc1nc2c(NC(=O)OCCSSC(C)CCC(=O)*)nc3ccccc3c2n1CC(C)(C)O; 1Nal = N[C@@H](Cc1cccc2ccccc12)C(=O)O; TBMB = c1c(C[*:1])cc(C[*:3])cc1C[*:2]; Tle = CC(C)(C)[C@H](N)C(=O)O; βAla = NCCC(=O)O; Sar = CNCC(=O)O

What was measured:
human TLR8 = target: T1, human TLR8 (Homo sapiens, UniProt Q9NR97); assay: Human TLR8 receptor activation, HEK293 reporter cell line; assay type: cell-based; details: HEK293 reporter cells, 16 hours
T1 construct: host or cells: HEK293 reporter cell line
T1 sequence (Q9NR97 27-1041): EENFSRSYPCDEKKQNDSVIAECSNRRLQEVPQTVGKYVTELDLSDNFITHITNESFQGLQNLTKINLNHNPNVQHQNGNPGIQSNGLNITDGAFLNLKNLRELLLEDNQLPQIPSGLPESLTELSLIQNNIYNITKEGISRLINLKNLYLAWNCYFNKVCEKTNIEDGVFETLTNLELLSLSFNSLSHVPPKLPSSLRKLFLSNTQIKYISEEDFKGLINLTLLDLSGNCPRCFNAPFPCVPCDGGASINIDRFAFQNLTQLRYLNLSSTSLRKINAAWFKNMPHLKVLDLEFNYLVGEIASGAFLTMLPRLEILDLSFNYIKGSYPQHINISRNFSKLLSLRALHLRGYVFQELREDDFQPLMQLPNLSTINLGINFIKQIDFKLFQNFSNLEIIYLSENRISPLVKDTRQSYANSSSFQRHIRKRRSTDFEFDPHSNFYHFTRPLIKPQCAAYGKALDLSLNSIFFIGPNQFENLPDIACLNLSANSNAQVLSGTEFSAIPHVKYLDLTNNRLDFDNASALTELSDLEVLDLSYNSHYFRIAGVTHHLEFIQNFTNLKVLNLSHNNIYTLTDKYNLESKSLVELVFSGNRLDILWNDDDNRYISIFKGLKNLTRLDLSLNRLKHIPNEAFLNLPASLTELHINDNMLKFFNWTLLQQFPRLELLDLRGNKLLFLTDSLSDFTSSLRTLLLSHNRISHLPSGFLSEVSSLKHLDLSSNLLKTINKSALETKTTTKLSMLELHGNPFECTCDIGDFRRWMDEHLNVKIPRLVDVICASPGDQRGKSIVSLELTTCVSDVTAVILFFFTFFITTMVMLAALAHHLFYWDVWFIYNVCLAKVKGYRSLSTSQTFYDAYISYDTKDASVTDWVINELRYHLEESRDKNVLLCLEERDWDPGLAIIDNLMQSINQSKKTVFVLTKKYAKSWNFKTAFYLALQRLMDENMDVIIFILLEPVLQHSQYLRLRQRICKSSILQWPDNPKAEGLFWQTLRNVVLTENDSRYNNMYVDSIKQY
Experimental: Compounds were tested for their activity to activate human TLR7 and TLR8 receptors using HEK293 reporter cell lines engineered to express respective receptors in accordance to manufacturer's instructions (InvivoGen). […] Incubation was for 16 hours at 37° C. and […]. Absorption at 655 nm was read on […]. Data was fitted using PRISM.

Plasma stability, rat = assay type: in vitro ADME; details: pH 7.4; rat plasma, 2 μM, 37° C.; read-out: T1/2 (rat)
B16F10 xenograft = assay: In vivo efficacy of I-8 alone or with antiPD-1 mAb in B16F10 xenograft; set-up: species or system C57BL/6J mice
Experimental: B16F10 tumor cells were maintained in vitro as a monolayer culture in EMEM medium supplemented with 10% heat inactivated fetal bovine serum at 37° C. in an atmosphere of 5% CO2 in air. The tumor cells were routinely subcultured twice weekly by trypsin-EDTA treatment. The cells growing in an exponential growth phase were harvested and counted for tumor inoculation.
6-8 week old female C57BL/6J mice were inoculated subcutaneously at the right flank with B16F10 tumor cells (5×10^5) in 0.1 ml of PBS for tumor development. Animals were randomized when the average tumor volume reached 65 mm^3.
Conjugates were formulated in 25 mM Histidine, 10% sucrose pH=7 buffer (vehicle) and administered intravenously. Anti-PD1 antibody (Wuxi AppTech, Shanghai, China) was formulated in aqueous buffer and administered intraperitoneally.
Tumor volume was measured three times weekly in two dimensions using a caliper, and the volume was expressed in mm^3 using the formula: V=0.5 a×b^2 where a and b are the long and short diameters of the tumor, respectively. The tumor size was then used for calculations of T/C value. The T/C value (in percent) is an indication of antitumor effectiveness; T and C are the mean volumes of the treated and control groups, respectively, on a given day.
TGI was calculated for each group using the formula: TGI (%)=[1−(Ti−T0)/(Vi−V0)]×100; Ti is the average tumor volume of a treatment group on a given day, T0 is the average tumor volume of the treatment group on the day of treatment start, Vi is the average tumor volume of the vehicle control group on the same day with Ti, and V0 is the average tumor volume of the vehicle group on the day of treatment start.
Summary statistics, including mean and the standard error of the mean (SEM), are provided for the tumor volume of each group at each time point.
Statistical analysis of difference in tumor volume among the groups was conducted on the data obtained at the best therapeutic time point after the final dose.
A one-way ANOVA was performed to compare tumor volume among groups, and when a significant F-statistics (a ratio of treatment variance to the error variance) was obtained, comparisons between groups were carried out with Games-Howell test. All data were analyzed using Prism. P<0.05 was considered to be statistically significant.

[1] = Study 2, day 9, I-8 20 mpk iv tiw, aPD1 10 mpk ip qw

CCOCc1nc2c(NC(=O)OCCSSC(C)CCC(=O)NCCC(=O)N(C)CC(=O)N(C)CC(=O)N(C)CC(=O)N(C)CC(=O)N(C)CC(=O)N(C)CC(=O)N(C)CC(=O)N(C)CC(=O)N(C)CC(=O)N(C)CC(=O)N[C@@H](C)C(=O)N[C@H]3CSCc4cc5cc(c4)CSC[C@H](NC(=O)[C@@H](C)NC(=O)[C@H](Cc4cccc6ccccc46)NC(=O)[C@H](CCC(=O)O)NC(=O)[C@H](CC(N)=O)NC(=O)[C@@H](C)NC3=O)C(=O)N[C@@H](CCC(=O)O)C(=O)N[C@@H](CC(=O)O)C(=O)N[C@@H](Cc3ccccc3)C(=O)N[C@@H](Cc3ccc(O)cc3)C(=O)N[C@@H](CC(=O)O)C(=O)N[C@@H](C(C)(C)C)C(=O)N[C@H](C(N)=O)CSC5)nc3ccccc3c2n1CC(C)(C)O (some centres unmarked) [I-8] ({X1-βAla}-[Sar][Sar][Sar][Sar][Sar][Sar][Sar][Sar][Sar][Sar]AC[dA]NE[1Nal][dA]CEDFYD[Tle]C-NH2; linker 12-18-25 via TBMB)
hTLR8 activation potency versus naked payload resiquimod (human TLR8): considerably reduced potency or inactivity | half-life at 2 μM (Plasma stability, rat): < 2 h | T/C (B16F10 xenograft; Study 1, 20 mpk iv tiw, day 9): 54.9% | TGI (B16F10 xenograft; Study 1, 20 mpk iv tiw, day 9): 50.0% | Tumor Volume (Mean ± SEM) (B16F10 xenograft; Study 1, 20 mpk iv tiw, day 9): 356 ± 60 mm^3 | T/C (B16F10 xenograft; Study 1, 60 mpk iv tiw, day 9): 25.6% | TGI (B16F10 xenograft; Study 1, 60 mpk iv tiw, day 9): 82.9% | Tumor Volume (Mean ± SEM) (B16F10 xenograft; Study 1, 60 mpk iv tiw, day 9): 166 ± 26 mm^3 | T/C (B16F10 xenograft; [1]): 86.8% | TGI (B16F10 xenograft; [1]): 13.7% | Tumor Volume (Mean ± SEM) (B16F10 xenograft; [1]): 1678 ± 1129 mm^3
